This note sets out measurements from patent publication US20260256756A1, “USE OF PIPERIDINE ALKENE COMPOUND IN PREPARATION OF DRUG FOR TREATING CANCER” (JIANGSU HANSOH PHARMACEUTICAL GROUP CO., LTD., priority 2023, published 2026).

A word on the T/C: it is the ratio of treated to control. The term TGI denotes the reduction of tumour growth relative to the control group.

This test has as its system human pancreatic cancer cell line Capan-1 xenograft tumor. Kind of test: Subcutaneous xenograft tumor model of human pancreatic cancer cell line Capan-1. The format is in vivo, BALB/c nude mice. The note with it: Capan-1, 100 mg/kg oral once/day. The text has this: • 1. Experimental objective: To evaluate the in vivo efficacy of compound 1 in a subcutaneous xenograft tumor model of human pancreatic cancer cell line Capan-1 in nude mice. • 2. Reagent • IMDM medium (30-2005, ATCC) and fetal bovine serum (FBS) (35-081-CV, Corning) • DPBS (21-031-CVR, Corning) and Matrigel (354234, Corning) • HPMC (H02J10D78204, Shanghai Yuanye Bio-Technology Co., Ltd.) • Trypsin-EDTA (25200-072, Gibco), penicillin and streptomycin (MA0110, Dalian Meilun Biotechnology Co., Ltd.) • 3. Experimental operations and data processing • 3.1 Animals: • BALB/c nude mice, 6-8 weeks old, female, purchased from Jiangsu GemPharmatech Co., Ltd. • 3.2 Cell culture and cell suspension preparation • a. A vial of Capan-1 cells was taken from a cell bank, the cells were thawed with IMDM medium (IMDM+20% FBS), and the thawed cells were placed in a cell culture flask (with the cell type, date, the name of the culture operator, etc., being marked on the wall of the flask), which were placed in a CO2 incubator for culturing (wherein the temperature of the incubator was 37° C., and the CO2 concentration was 5%). • b. The cells were passaged once a week, and after passage, the cells were placed in the CO2 incubator to continue the culture. This process was repeated until the cell number met the requirements for in vivo efficacy. • c. The cultured cells were collected, counted using a full-automatic cell counter, and resuspended with PBS on the basis of the counting results to prepare a cell suspension (at a density of 5×10^7/mL). An equal volume of Matrigel was added to the cell suspension, and the resulting mixture was mixed uniformly and then placed in an ice box for later use. • 3.3 Cell inoculation • a. Before inoculation, the nude mice were marked with disposable universal ear tags for mice and rats. • b. At the time of inoculation, the cell suspension was mixed uniformly, 0.2-1 mL of the cell suspension was aspirated using a 1 mL syringe with air bubbles expelled, and the syringe was then placed on an ice bag for later use. • c. […] Tumor was measured on days 4-7 after inoculation depending on the tumor growth, and the tumor size was calculated.
tumor volume (mm^3)=length (mm)×width (mm)×width (mm)/2 Tumor volume calculation: • b. […] The tumor inhibitory efficacy of the compound was evaluated by TGI (%) and ΔT/ΔC (%). ΔT/ΔC (%)=(T−T0)/(C−C0)×100, where T and C are the tumor volumes of the treatment group and the vehicle control group at the end of the experiment, respectively, and T0 and C0 are the tumor volumes of the treatment group and the vehicle control group at the beginning of the experiment, respectively. […]
A general note: Xenograft models place foreign cells or tissue in a host animal.

Regarding `O=C(c1cc(Cc2n[nH]c(=O)c3ccccc23)ccc1F)N1CCN(C(=O)C2CC2)CC1` [Olaparib], the “Tumor volume (Mean ± SEM)” value (Day 0) is 164 ± 13 mm^3. Moreover, under “Day 28”, the T/C is reported as 86.27%, the TGI is recorded as 14.39% and the “Tumor volume (Mean ± SEM)” value is given as 724 ± 82 mm^3.
